In patent US20180246105A1, “IMMUNOLOGICAL TEST KIT FOR […] EFFICACY AND STORAGE METHOD THEREOF” (priority 2015, published 2018):
Entries after “also recorded” stand apart in the source; their conditions may differ.

Columns and labels:
CD4+ T cells = assay: Clinical cellular immune detection (10-day enrichment), CD4+ T cells re-stimulated with HBV-specific peptides; type: in vivo, human
Description: (§1) 7) Cell seeding and peptide stimulation. PBMC was re-suspended with 10% FBS-RPMI-1640 and seeded into 12-well plate with 1mL/well. Specific peptides were added at the same time with 1 μL per well. The plate was then incubated in 5% CO2, 37° C.
(§2) After five days incubation, 50 μL sample was taken from each well and stored at −80° C. Then added 500 ul 10% FBS-RPMI-1640 contained […], continued for another five days incubator.
(§3) 2) Stimulation. After 10 days enrichment, the cells in 12-well plate were transferred into a 1.5 mL EP tube. Centrifuge with 1500 rpm, 3 min. Discard supernatant and re-suspend with FBS-RPMI-1640 prepared in step 1. The suspended cells were then seeded into a 96-well plate, the plate was coated with PMA, N, CMV, S4, S8 and MIX, 90 uL/well with three repetitions. Then the plate was incubated in 5% CO2, 37° C. for 8 hours.
(§4) 3) Storage. After 8 hours incubation, the 96-well plate was set for centrifuge with 1500 rpm, 3 min. Discard supernatant and re-suspend with 200 μL cell freezing medium (10% DMSO with 90% FBS). Disassociation by pipetting 3 to 5 times and sealed with parafilm. And then set for gradient cryopreservation with 4° C. for 1 hour, at −20° C. for 40 min and at −80° C. thereafter.
(§5) 3) Cell surface marker staining Panel 1, CD4-APC; Panel 2, CD8-APC; Panel 3, CD4-FITC. The dose of antibody was as the recommended dose in the reagent manual. Plate was centrifuged with 1500 rpm, 3 min. Discard supernatant and re-suspend with staining buffer in 4° C. for 30 min.
6) Intracellular staining. Panel 1/Panel 2, IFN-g-PE, TNF-α-BV421, IL-17-APC/cy7, IL-2-FITC; Panel 3, FOXP3-APC, IL-4-BV421, IL-10-PE. The dose of antibody was at the recommended dose in the reagent manual. Re-suspend the cells with staining buffer in room temperature for 1.5 hour with shake.
8) FACS detection. The detection was conducted with BD LSR Fortessa (BD Bioscience, USA). The voltage and compensation may be well adjusted. The result data was analyzed with FlowJo v7.6.3, and the results were shown as positive percentage.
Antigen specific cellular immunity may play an important role in chronic HBV treatment. […] Peripheral Blood mononuclear cells (PBMC) were isolated and re-stimulated with HBV-specific polypeptide for 10-day enrichment. After the cell was collected and re-stimulated by HBV-specific polypeptide for 8 hours, the levels of cytokines in CD4+ and CD8^+ T lymphocytes were detected by flow cytometry. IL-2, IL-4, IL-10, IL-17a, Foxp3, IFN-γ and TNF-α were analyzed in CD4^+ T cells, whereas IL-2, IL-17a, IFN-γ and TNF-α were analyzed in CD8^+ T lymphocyte.

CD8+ T cells = assay: Clinical cellular immune detection (10-day enrichment), CD8+ T cells re-stimulated with HBV-specific peptides; type: in vivo, human
Description: as §1, §2, §3, §4, §5
6) Intracellular staining. […]
8) FACS detection. […] The result data was analyzed with FlowJo v7.6.3, and the results were shown as positive percentage.
Antigen specific cellular immunity may play an important role in chronic HBV treatment. […] After the cell was collected and re-stimulated by HBV-specific polypeptide for 8 hours, the levels of cytokines in CD4+ and CD8^+ T lymphocytes were detected by flow cytometry. IL-2, IL-4, IL-10, IL-17a, Foxp3, IFN-γ and TNF-α were analyzed in CD4^+ T cells, whereas IL-2, IL-17a, IFN-γ and TNF-α were analyzed in CD8^+ T lymphocyte.

[1] = Clinical trial ChiCTR-TRC-13003254: serum ALT kinetics; type: in vivo, human; details: 48-week treatment and 72-week follow-up
Description: HBV DNA was not detected or the level decreased at least 2 log 10 IU/mL compared with the basement on weeks 12, 24, 36, 48 and 72; The AST and ALT level on weeks 12, 24, 36, 48 and 72; The histological response, with the inflammation and fibrosis should rate under level 1 of the liver on week 48.
Routine biochemistry (liver function, renal function); Blood cell analysis; Serum HBV DNA detection; HBVM detection; All the detection were conducted in the central laboratory of Huashan Hospital.

[2] = test system: T cell subsets (Th1, Th2, Th17, Treg, Tc1, Tc17); assay: T-lymphocyte subset proportions and subset ratios during treatment; type: in vivo, human
Excerpt: From the previous results, a T cell responds heterogeneously. In order to intuitively understand the dynamic changes of different T cell subsets, IFN-γ^+ CD4^+ T cells were assigned into the Th1, IL-4^+ CD4^+ T cells as TH2, IL-17a producing CD4^+ T cells as TH17, Foxp3^+CD4^+ T cells Treg, and the CD8^+ T cells secreting different cytokines were classified as TC1 and […] by the same method.
In order to further obtain the effect of different therapies on cellular immunity, the TH1/Treg, Th2/Treg, Th17/Treg, and Th1/th2 was analyzed and plotted.

HBsAg = details: after five years of treatment; HBeAg positive CHB patients; cited from earlier work
[3] = 0 to 72 weeks, significant changes at 24th week

Structure (SMILES) | Foxp3 expression in CD4+ T cells (Treg), dynamics (CD4+ T cells; [3]) | IL-10 secretion in CD4+ T cells, dynamics (CD4+ T cells; [3]) | Foxp3 expression in CD4+ T cells (Treg), dynamics (CD4+ T cells; 0 to 72 weeks, significant changes at 24th week, listed as Adv) | IL-4 in CD4+ T cells, dynamics (CD4+ T cells; S-polypeptide pool stimulation) | IFN-γ expression in CD4+ T cells, dynamics (CD4+ T cells; S-polypeptide pool stimulation, 0 to 72 weeks) | IL-2 and TNF-α in CD4+ T cells, dynamics (CD4+ T cells; S-polypeptide pool stimulation, course of treatment) | IL-17A in CD4+ T cells, dynamics (CD4+ T cells; peptide pool stimulation, course of treatment) | IFN-γ secreted by CD8+ T cells, dynamics (CD8+ T cells; HLA-A2+ or HLA-A2− S polypeptide re-stimulation, 0 to 72 weeks) | IL-17A of CD8+ T cells, dynamics (CD8+ T cells; S polypeptide pool stimulation) | IL-2 and TNF-α secreted by CD8+ T cells, dynamics (CD8+ T cells; S polypeptide re-stimulation, course of treatment) | ALT level, change [1] | change of TH1, TH2, TH17, TC1 and Tc17 cell proportions ([2]; 0 weeks to 72 weeks) | proportion of Treg cells in total T cell subsets ([2]; 48 weeks) | proportion of Treg cells in total T cell subsets ([2]; 72 weeks, follow-up endpoint) | proportion of Treg cells in total T cell subsets ([2]; baseline) | patients with HBsAg serotype transformed (HBsAg)
CC(C)(C)C(=O)OCOP(=O)(COCCn1cnc2c(N)ncnc21)OCOC(=O)C(C)(C)C [ADV, Adefovir Dipivoxil] | not significantly changed; also recorded: no significant fluctuation; also recorded: did not show significant fluctuation | no significant change | did not change significantly; also recorded: did not show significant fluctuation | no difference | no significant difference | no significant difference | no significant change | no difference | no significance | No significant difference | did not change significantly | no significant changes | 25.8% | 37.8% | 37.7% | –
C[C@H](Cn1cnc2c(N)ncnc21)OCP(=O)(O)O [Tenofovir] | – | – | – | – | – | – | – | – | – | – | – | – | – | – | – | 23 of 266
